Results published in patent US10058586B2, “Use of human small leucine zipper protein in adipocyte differentiation procedure” (Korea University Research and Business Foundation, priority 2013, dated 2018).
d = 2'-deoxy (DNA)

Target: T1, PPARγ2 (Homo sapiens, UniProt P37231)
T1 sequence (P37231 1-505): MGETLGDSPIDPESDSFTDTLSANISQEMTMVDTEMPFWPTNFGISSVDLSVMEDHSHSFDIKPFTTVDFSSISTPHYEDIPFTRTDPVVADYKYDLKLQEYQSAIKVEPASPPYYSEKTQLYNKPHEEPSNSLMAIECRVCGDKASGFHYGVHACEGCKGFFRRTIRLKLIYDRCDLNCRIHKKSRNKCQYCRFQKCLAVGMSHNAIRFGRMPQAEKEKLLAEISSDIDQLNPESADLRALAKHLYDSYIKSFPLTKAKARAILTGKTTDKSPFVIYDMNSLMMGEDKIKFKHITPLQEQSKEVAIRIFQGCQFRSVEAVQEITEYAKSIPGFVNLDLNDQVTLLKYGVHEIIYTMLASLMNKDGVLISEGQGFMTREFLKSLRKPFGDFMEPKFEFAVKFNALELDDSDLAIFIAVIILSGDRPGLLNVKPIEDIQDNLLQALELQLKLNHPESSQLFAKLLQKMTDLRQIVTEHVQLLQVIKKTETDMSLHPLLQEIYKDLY
Test: Luciferase reporter gene analysis (FABP4-Luc) of PPARγ2 transcriptional activity in 293T cells
Assay type: cell-based
Set-up: expressed in transfected cells; host or cells: 293T cells
Conditions: for sLZIP-mediated PPARγ2 transcriptional activity (luciferase): 293T cells expressing sLZIP, 100 nM si-RNAs, with or without 10 nM RZD
Method: C3H10T1/2 and 293T cells were plated in a 12-well culture dish at a density of 2×10^5 cells/well and incubated for 24 hours. Then, according to instructions of the manufacturer, the cells were transfected with a 0.2 μg of reporter genes and 0.1 to 0.5 μg of a laboratory plasmid using Lipofectamine 2000 or Genefectine. After 24 hours, the cells were cultured in a serum-free DMEM with or without 10 nM of rosiglitazone. siRNAs were prepared using sLZIP and HDAC target sequences (Table 1). For an RNA interference experiment, according to instructions of the manufacturer, the cells were transfected with scrambled control group RNA and appropriate siRNAs using Lipofectamine 2000. Human MSC and C3H10T/1/2 cells were infected with an adenovirus vector containing cDNA of human sLZIP or an empty vector. The infected medium was exchanged with a fresh medium after two hours.
Appropriately transfected cells were washed with cold PBS twice, and a reporter lysis buffer (Promega) was used and lysed in a culture dish. Luciferase analysis was performed using a luciferase analysis system (Promega Corporation, Madison, Wis.). A luciferase activity was recorded in Luminometer 20/20^n (Turner BioSystems, Sunnyvale, Calif.) according to instructions of the manufacturer. The luciferase activity was normalized to a β-galactosidase activity. For β-galactosidase analysis, CMV-β-galactosidase was transfected with luciferase reporter genes. All pieces of data were represented as mean±standard deviation of the results from at least three independent experiments.
In order to examine an effect of sLZIP on the transcriptional activity of PPARγ2, 293T cells were temporarily transfected with PPARγ2 (0.5 μg), β-galactosidase (0.1 μg), FABP4-Luc reporter genes (0.2 μg) and sLZIP at different contents (0.1 to 0.5 μg). After the transfection, the cells were stimulated with or without 10 nM of rosiglitazone (RZD) (FIG. 1A), pioglitazone (PZD) (FIG. 1B), and troglitazone (TZD) (FIG. 1C). A relative luciferase activity was analyzed with or without cell ligand treatment 24 hours after transfection. Also, the 293T cells were transiently transfected with si-sLZIP at different contents (50 and 100 nM), and the cells were treated or not treated with RZD (FIG. 1D). FABP4-Luc stable C3H10T1/2 cells were infected with a sLZIP-expressing adenovirus, and then differentiated into adipocytes for 4 days (FIG. 1E). A luciferase activity was normalized to a β-galactosidase activity and represented as a relative activity (fold change). All experiments were repeated three times, and bars in the graph represent mean±standard deviation. *, P<0.05; **, P<0.01
For this purpose, 293T cells were transiently transfected with PPARγ2 (0.5 μg), (3-galactosidase (0.1 μg), FABP4-Luc reporter genes (0.2 μg) and sLZIP (0.1 μg). After the transfection, the cells were stimulated with or without 10 nM of RZD and 10 nM of TSA (FIG. 4A). A promoter activity was measured according to luciferase analysis. In the 293T cells, FABP4-Luc reporter genes, sLZIP, PPAR, β-galactosidase, and 100 nM of si-RNAs and HDAC1, 2, 3 and 8 for a control group were expressed. After the transfection, the cells were stimulated with or without 10 nM of RZD, and a promoter activity was measured (FIG. 4B). 293T cells were temporarily transfected with FABP4-Luc reporter genes, PPARγ2, β-galactosidase, HDAC3 (0.5 μg) and sLZIP (0.1 μg). After the transfection, the cells were stimulated with or without 10 nM of RZD, and luciferase analysis was performed (FIG. 4C). A luciferase activity was normalized to a β-galactosidase activity and represented as a relative intensity (fold change). All experiments were repeated three times, and bars in the graph represent mean±standard deviation. GFP-sLZIP expression constructs were expressed in C3H10T1/2 cells, rabbit anti-HDAC3 antibodies and Texas Red-labeled anti-rabbit antibodies were used and analysis was performed under a fluorescence microscope. The nucleus was stained with DAPI (FIG. 4D). […]

Substance | transcriptional activity of PPARγ2 (relative luciferase activity) (293T cells, si-sLZIP 50 and 100 nM, treated or not treated with RZD) | sLZIP-mediated PPARγ2 transcriptional activity (luciferase)
si-sLZIP: siRNA for sLZIP, SEQ ID NO: 5 and 6 (+dTdT) (chain 1 GGACCCAGAUGACUCCACAGCAUAU; chain 2 AUAUGCUGUGGAGUCAUCUGGGUCC; RNA, 3' dTdT, backbone not given here) [reference compound] | increased the transcriptional activity of PPARγ2 | –
siRNA for HDAC1: siRNA with HDAC1 target sequence, SEQ ID NO: 7 and 8 (chain 1 CGACUGUUUGAGAACCUUA; chain 2 UAAGGUUCUCAAACAGUCGCU; RNA, 3' dTdT, backbone not given here) [reference compound] | – | not involved in sLZIP-mediated PPARγ2 regulation
siRNA for HDAC2: siRNA with HDAC2 target sequence, SEQ ID NO: 9 and 10 (chain 1 GGUCAAUAAGACCAGAUAA; chain 2 UUAUCUGGUCUUAUUGACCG; RNA, 3' dTdT, backbone not given here) [reference compound] | – | not involved in sLZIP-mediated PPARγ2 regulation
siRNA for HDAC3: siRNA with HDAC3 target sequence, SEQ ID NO: 11 and 12, used to knock down HDAC3 (chain 1 GCCGGUUAUCAACCAGGUA; chain 2 UACCUGGUUGAUAACCGGC; RNA, 3' dTdT, backbone not given here) [reference compound] | – | significantly increased
siRNA for HDAC8: siRNA with HDAC8 target sequence, SEQ ID NO: 13 and 14 (chain 1 CAUUCAGGAUGGCAUACAA; chain 2 UUGUAUGCCAUCCUGAAUGGG; RNA, 3' dTdT, backbone not given here) [reference compound] | – | not involved in sLZIP-mediated PPARγ2 regulation
